For assay [1], the system named is Escherichia coli. Description: Antibacterial activity against clinical isolate Escherichia coli KCTC 1682 after overnight incubation by radial diffusion assay. Format: functional, organism-based.
Assay [2] relates to Escherichia coli. The assay can be described thus: Antibacterial activity against clinical isolate Escherichia coli KCTC 1682 at 50 uM after overnight incubation by radial diffusion assay relative to drosocin D. The format is functional.

Molecules are shown by their SMILES. Active and inactive are the calls of the source. The rule behind the calls is not given here. Numbered stars: 1 amine (or outer) side, 2 acyl side, 3 side chain; on linkers, the order of the positions; unused ones are H or OH. Square brackets hold non-standard residues; d marks the D form. Peptide text beside a SMILES is read from it. X1 = CC(=O)N[C@H]1[C@@H](O[C@@H](C)CN(CC(=O)[*:2])[*:1])O[C@H](CO)[C@H](O)[C@@H]1O; X2 = CC(=O)N[C@H]1[C@@H](O[C@H](C)CN(CC(=O)[*:2])[*:1])O[C@H](CO)[C@H](O)[C@@H]1O; X3 = CC(=O)N[C@H]1[C@@H](OCCN(CC(=O)[*:2])[*:1])O[C@H](CO)[C@H](O)[C@@H]1O

For `CC[C@H](C)[C@H](NC(=O)[C@@H]1CCCN1C(=O)[C@H](CCCNC(=N)N)NC(=O)[C@@H]1CCCN1C(=O)[C@H](Cc1cnc[nH]1)NC(=O)[C@H](CO)NC(=O)CN(C[C@H](C)O[C@H]1O[C@H](CO)[C@H](O)[C@H](O)[C@H]1NC(C)=O)C(=O)[C@H](C)NC(=O)[C@H](CCCNC(=N)N)NC(=O)[C@@H]1CCCN1C(=O)[C@@H](NC(=O)[C@H](Cc1ccc(O)cc1)NC(=O)[C@@H]1CCCN1C(=O)[C@H](CCCNC(=N)N)NC(=O)[C@@H]1CCCN1C(=O)[C@H](CCCCN)NC(=O)CN)[C@@H](C)O)C(=O)N[C@@H](CCCNC(=N)N)C(=O)N[C@H](C(=O)O)C(C)C` (H-GKPRPYTPRA[X1]SHPRPIRV-OH), the Activity result with Escherichia coli [1] was “Dose-dependent effect”. The “fold change (FC)” value in the assay with Escherichia coli [2] came to 6.

Take `CC[C@H](C)[C@H](NC(=O)[C@@H]1CCCN1C(=O)[C@H](CCCNC(=N)N)NC(=O)[C@@H]1CCCN1C(=O)[C@H](Cc1cnc[nH]1)NC(=O)[C@H](CO)NC(=O)CN(C[C@@H](C)O[C@H]1O[C@H](CO)[C@H](O)[C@H](O)[C@H]1NC(C)=O)C(=O)[C@H](C)NC(=O)[C@H](CCCNC(=N)N)NC(=O)[C@@H]1CCCN1C(=O)[C@@H](NC(=O)[C@H](Cc1ccc(O)cc1)NC(=O)[C@@H]1CCCN1C(=O)[C@H](CCCNC(=N)N)NC(=O)[C@@H]1CCCN1C(=O)[C@H](CCCCN)NC(=O)CN)[C@@H](C)O)C(=O)N[C@@H](CCCNC(=N)N)C(=O)N[C@H](C(=O)O)C(C)C` (H-GKPRPYTPRA[X2]SHPRPIRV-OH): the outcome in the assay on Escherichia coli [1] was Active.

For `CC[C@H](C)[C@H](NC(=O)[C@@H]1CCCN1C(=O)[C@H](CCCNC(=N)N)NC(=O)[C@@H]1CCCN1C(=O)[C@H](Cc1cnc[nH]1)NC(=O)[C@H](CO)NC(=O)CN(CCO[C@H]1O[C@H](CO)[C@H](O)[C@H](O)[C@H]1NC(C)=O)C(=O)[C@H](C)NC(=O)[C@H](CCCNC(=N)N)NC(=O)[C@@H]1CCCN1C(=O)[C@@H](NC(=O)[C@H](Cc1ccc(O)cc1)NC(=O)[C@@H]1CCCN1C(=O)[C@H](CCCNC(=N)N)NC(=O)[C@@H]1CCCN1C(=O)[C@H](CCCCN)NC(=O)CN)[C@@H](C)O)C(=O)N[C@@H](CCCNC(=N)N)C(=O)N[C@H](C(=O)O)C(C)C` (H-GKPRPYTPRA[X3]SHPRPIRV-OH), the outcome with Escherichia coli [1] was Active.

Source of the values: ChEMBL document CHEMBL1833802, “Substitution of the GalNAc-α-O-Thr¹¹ residue in drosocin with O-linked glyco-peptoid residue: effect on antibacterial activity and conformational change” (2011).
